pIC50: −log10 of the molar value. Read-outs that look alike come from different tables or passages of the source.

What is called Dmax is the greatest extent of degradation seen. As usually defined, the DC50 is the midpoint of the concentration-degradation curve. In general, pIC50 refers to the IC50 on a negative log10 scale, so that one unit is a factor of ten.

The target of one test is ER in MCF-7 cells (Homo sapiens (Human), UniProt P03372). In words: In-cell Western (ICW) ER degradation assay in MCF-7 cells. Format: cell-based. The following applies: for DC50: MCF-7, ER degradation, read-out: MCF7 DC50.
The next test addresses CRBN/DDB1 (Homo sapiens (Human), UniProt Q96SW2). It is filed as binding. The following applies: His tagged CRBN+DDB1, Cy5-labeled Thalidomide probe, one hour; read-out: CRBN HTRF IC50. The protocol: The binding potency was determined using HTRF assay technology (Perkin Elmer). Compounds were serially diluted in DMSO and […] volume was transferred to white 384-well plate.
On the technique in general: Time-resolved FRET reads energy transfer from a long-lived donor to a nearby acceptor.

Another test concerns the target ERα_LBD (GST) (Homo sapiens (Human), UniProt P03372). In words: IC50 measurements for binding to ERα_LBD (GST), LanthaScreen TR-FRET competitive binding. The note with it: ERα_LBD (GST) 4 nM, Fluormone ES2 Green tracer, 60 min; read-out: ERα HTRF IC50. The protocol:
In vitro Assay: IC50 Measurements for binding to ERα_LBD (GST) • Final assay conditions: • 1. ERα_LBD (GST) protein: 4 nM • 2. Tb Anti-GST: 2 nM • 3. Fluormone ES2 Green tracer: 3 nM • 4. Incubation time: 60 min • 5. DMSO: 1% • 6. Assay buffer: Adding 1M DTT to Nuclear receptor Buffer K for final 5 mM DTT. • 7. ZPE: 1% DMSO • 8. HPE: 1 μM ARV_471 (positive control) • 9. LanthaScreen® TR-FRET ERα Competitive Binding Assay (ThermoFisher, #A^15887) • 100× Compound preparation
1) Cherry pick 2 μL 10 mM compound stock to column 1 of a 384 intermediate plate. • 2) Add 18 μL DMSO to column 1 to dilute compound to 1 mM. • 3) Transfer 10 μL 1 mM compound to column 1 of a LDV plate. • 2) Add 6 μl DMSO to column 2-10 of the LDV plate. • 3) Compounds undergo 3-fold serial dilution (3 μL+6 μL) in DMSO. • 4) Transfer 120 nL compound solution to assay plate. ZPE: 120 nL 100% DMSO • Procedure:
Complete nuclear receptor buffer K was prepared by adding 1 M DTT to nuclear receptor buffer K for a final concentration of 5 mM DTT. Complete nuclear receptor buffer K must be prepared fresh daily, 2X protein solution was prepared using complete nuclear receptor buffer K containing 8 nM ERα_LBD (GST) and 4 nM Tb Anti-GST. Then, 2X Fluormone ES2 Green tracer (6 nM) was prepared using complete nuclear receptor buffer K. Add 6 μL 2X Fluormone ES2 green tracer into a compound plate (PerkinElmer 6008289) by dragonfly with one-tips-addition. Subsequently, 6 μL 2× protein solution was added into the plate. The 384-well plate was mixed on a plate shaker and incubated at room temperature protected from light for 60 min. The plate was scaled with a cover to minimize evaporation. The plate was read at wavelengths of 520 nm and 495 nm. The TR-FRET ratio was calculated by dividing the emission signal at 520 nm by the emission signal at 495 nm. A binding curve was generated by plotting the emission ratio vs, the log [ligand]. To determine the IC50 value, fit the data using XL-fit for a sigmoidal dose-response.

In a further test the target is ER in T47D cells (Homo sapiens (Human), UniProt P03372). In words: In-cell Western (ICW) ER degradation assay in T47D cells. Format: cell-based. The following applies: for DC50: ER degradation.
Where [1] appears, read: MCF7, read-out: MCF7 Dmax, MCF-7, maximal ER degradation, 16 hrs treatment.
Setting [2] is: MCF7, MCF-7, maximal ER degradation, 16 hrs treatment, read-out: MCF7 Dmax.
Where [3] appears, read: maximal ER degradation, 16 hrs treatment, read-out: T47D Dmax.
[4] abbreviates: read-out: T47D Dmax, T47D, maximal ER degradation, 16 hrs treatment.

ERα_LBD (GST), sequence (P03372 311-547): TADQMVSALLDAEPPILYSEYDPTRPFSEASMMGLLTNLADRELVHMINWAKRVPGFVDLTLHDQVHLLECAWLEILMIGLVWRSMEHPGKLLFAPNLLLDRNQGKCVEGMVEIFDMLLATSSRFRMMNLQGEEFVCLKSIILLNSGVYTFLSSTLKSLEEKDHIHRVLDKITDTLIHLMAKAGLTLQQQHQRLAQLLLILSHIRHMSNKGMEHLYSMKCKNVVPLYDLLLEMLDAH
CRBN/DDB1, sequence (Q96SW2 whole entry, species assumed): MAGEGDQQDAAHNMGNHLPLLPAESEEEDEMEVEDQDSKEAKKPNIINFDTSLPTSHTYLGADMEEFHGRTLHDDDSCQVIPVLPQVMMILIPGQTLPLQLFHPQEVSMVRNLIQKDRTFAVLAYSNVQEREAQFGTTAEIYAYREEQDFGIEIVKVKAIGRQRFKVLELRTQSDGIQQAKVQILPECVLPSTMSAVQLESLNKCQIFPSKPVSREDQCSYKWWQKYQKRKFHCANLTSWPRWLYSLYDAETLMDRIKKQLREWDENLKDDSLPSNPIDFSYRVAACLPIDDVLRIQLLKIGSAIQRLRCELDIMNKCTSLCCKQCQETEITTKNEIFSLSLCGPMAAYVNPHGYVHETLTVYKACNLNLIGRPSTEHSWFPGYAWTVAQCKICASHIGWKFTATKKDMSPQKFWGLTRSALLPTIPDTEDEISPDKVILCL
CRBN/DDB1, sequence (Q16531 whole entry partner, species assumed): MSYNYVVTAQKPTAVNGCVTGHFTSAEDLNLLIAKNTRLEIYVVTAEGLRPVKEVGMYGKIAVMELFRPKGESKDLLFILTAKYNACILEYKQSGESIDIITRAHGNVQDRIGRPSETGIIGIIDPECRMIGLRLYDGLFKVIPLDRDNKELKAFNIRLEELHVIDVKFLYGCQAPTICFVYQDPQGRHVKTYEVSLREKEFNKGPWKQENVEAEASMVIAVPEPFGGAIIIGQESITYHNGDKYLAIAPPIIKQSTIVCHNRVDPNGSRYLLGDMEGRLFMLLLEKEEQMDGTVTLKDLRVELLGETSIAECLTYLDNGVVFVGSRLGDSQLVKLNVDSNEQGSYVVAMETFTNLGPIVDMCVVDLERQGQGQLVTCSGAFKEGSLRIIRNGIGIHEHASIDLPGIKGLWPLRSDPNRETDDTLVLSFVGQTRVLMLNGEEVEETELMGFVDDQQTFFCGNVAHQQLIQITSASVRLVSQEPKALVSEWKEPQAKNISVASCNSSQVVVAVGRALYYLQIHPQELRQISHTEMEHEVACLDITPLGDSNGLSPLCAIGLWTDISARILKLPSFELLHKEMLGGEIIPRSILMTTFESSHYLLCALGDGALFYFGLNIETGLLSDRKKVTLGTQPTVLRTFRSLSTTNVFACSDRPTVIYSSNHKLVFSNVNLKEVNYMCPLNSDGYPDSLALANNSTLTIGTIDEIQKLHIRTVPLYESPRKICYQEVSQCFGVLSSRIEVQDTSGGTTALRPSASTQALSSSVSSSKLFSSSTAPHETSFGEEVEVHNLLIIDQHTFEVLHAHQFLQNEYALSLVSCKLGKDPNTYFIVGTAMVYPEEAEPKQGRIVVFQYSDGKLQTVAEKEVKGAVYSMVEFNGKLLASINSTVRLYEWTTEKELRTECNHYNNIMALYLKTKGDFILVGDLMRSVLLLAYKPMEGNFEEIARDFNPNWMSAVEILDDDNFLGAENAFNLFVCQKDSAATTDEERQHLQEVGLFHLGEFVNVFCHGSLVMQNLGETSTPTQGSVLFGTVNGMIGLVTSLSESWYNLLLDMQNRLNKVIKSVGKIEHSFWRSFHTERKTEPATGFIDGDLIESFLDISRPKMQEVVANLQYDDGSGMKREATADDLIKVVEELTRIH
ER in T47D cells, sequence (P03372 whole entry): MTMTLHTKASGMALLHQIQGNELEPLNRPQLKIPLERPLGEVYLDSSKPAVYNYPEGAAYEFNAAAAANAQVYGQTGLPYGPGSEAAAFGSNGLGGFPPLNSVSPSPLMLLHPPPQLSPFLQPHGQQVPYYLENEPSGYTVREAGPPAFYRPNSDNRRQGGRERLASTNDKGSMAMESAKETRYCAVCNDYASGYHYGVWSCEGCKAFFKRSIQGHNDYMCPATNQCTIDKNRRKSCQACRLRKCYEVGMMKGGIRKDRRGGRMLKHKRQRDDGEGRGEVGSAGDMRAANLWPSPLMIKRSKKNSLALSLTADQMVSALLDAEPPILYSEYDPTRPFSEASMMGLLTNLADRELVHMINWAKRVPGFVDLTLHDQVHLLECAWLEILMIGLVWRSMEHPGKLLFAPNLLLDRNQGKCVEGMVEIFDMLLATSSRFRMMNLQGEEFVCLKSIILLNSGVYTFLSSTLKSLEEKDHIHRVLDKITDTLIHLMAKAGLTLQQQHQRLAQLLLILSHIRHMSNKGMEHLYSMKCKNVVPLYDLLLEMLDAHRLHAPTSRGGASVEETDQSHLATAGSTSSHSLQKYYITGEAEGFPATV
ER in MCF-7 cells, sequence (P03372 whole entry): as above

Consider `O=C1CC[C@H](N2Cc3c(ccc4c3OCC43CCN(CC4CCC5(CC4)CN(c4ccc([C@@H]6c7ccc(O)cc7CC[C@@H]6c6ccccc6)cn4)C5)CC3)C2=O)C(=O)N1` [Compound A131, (S)-3-(1′-((2-(5-((1S,2S)-6-hydroxy-2-phenyl-1,2,3,4-tetrahydronaphthalen-1-yl)pyridin-2-yl)-2-azaspiro[3.5]nonan-7-yl)methyl)-6-oxo-6,8-dihydro-2H,7H-spiro[furo[2,3-e]isoindole-3,4′-piperidin]-7-yl)piperidine-2,6-dione], for which the Dmax at ER in MCF-7 cells (setting [1]) is > 75%. For the same compound, the DC50 at ER in MCF-7 cells (16 hrs treatment) is < 1 nM. The pIC50 at CRBN/DDB1 was > 7.30; on ERα_LBD (GST), > 8.00.

Take `COC1(CN2CCN3c4ccc5c(c4OC[C@H]3C2)CN([C@H]2CCC(=O)NC2=O)C5=O)CCN(c2ccc([C@@H]3c4ccc(O)cc4CC[C@@H]3c3ccccc3)cc2)CC1` [Compound A82, (S)-3-((R)-7-((1-(4-((1R,2S)-6-hydroxy-2-phenyl-1,2,3,4-tetrahydronaphthalen-1-yl)-phenyl)-4-methoxypiperidin-4-yl)methyl)-1-oxo-1,3,5,5a,6,7,8,9-octahydro-2H-pyrazino [1′,2′:4,5][1,4]oxazino[2,3-c]isoindol-2-yl)piperidine-2,6-dione]: at ER in MCF-7 cells (setting [2]), the Dmax was > 75%. Also, the DC50 on ER in MCF-7 cells (16 hrs treatment) is < 1 nM. Further, the pIC50 is 6.30 to 7.30 at CRBN/DDB1 and > 8.00 at ERα_LBD (GST).

`COc1cc(N2CCC3(CC2)CC(CN2CCN4c5ccc6c(c5OC[C@H]4C2)CN([C@H]2CCC(=O)NC2=O)C6=O)C3)c(F)cc1[C@@H]1c2ccc(O)cc2CC[C@@H]1c1ccccc1` [Compound A99, (S)-3-((R)-7-((7-(2-fluoro-4-((1S,2S)-6-hydroxy-2-phenyl-1,2,3,4-tetrahydronaphthalen-1-yl)-5-methoxyphenyl)-7-azaspiro[3.5]nonan-2-yl)methyl)-1-oxo-1,3,5,5a,6,7,8,9-octahydro-2H-pyrazino[1′,2′:4,5][1,4]oxazino[2,3-e]isoindol-2-yl)piperidine-2,6-dione]: the DC50 at ER in T47D cells (16 hrs treatment) and on ER in MCF-7 cells (16 hrs treatment) was < 1 nM throughout. In addition, the maximal degradation (Dmax) at ER in T47D cells (setting [3]) and on ER in MCF-7 cells (setting [2]) was > 75% each time. On ERα_LBD (GST), the pIC50 was > 8.00.

On to `COc1cc(N2CCC(CN3CCN4c5ccc(C(=O)N[C@H]6CCC(=O)NC6=O)nc5OC[C@H]4C3)CC2)c(F)cc1[C@@H]1c2ccc(O)cc2CC[C@@H]1c1ccccc1` [Compound A94, (R)-N-((S)-2,6-dioxopiperidin-3-yl)-3-((1-(2-fluoro-4-((1S,2S)-6-hydroxy-2-phenyl-1,2,3,4-tetrahydronaphthalen-1-yl)-5-methoxyphenyl)piperidin-4-yl)methyl)-1,2,3,4,4a,5-hexahydropyrazino[1,2-d]pyrido[2,3-b][1,4]oxazine-8-carboxamide], for which the DC50 at ER in T47D cells (16 hrs treatment) and on ER in MCF-7 cells (16 hrs treatment) was < 1 nM each time. For the same compound, the Dmax on ER in T47D cells (setting [3]) and at ER in MCF-7 cells (setting [2]) was > 75% throughout. The pIC50 is < 5.30 on CRBN/DDB1 and > 8.00 on ERα_LBD (GST).

On to `O=C1CC[C@H](N2Cc3c(ccc4c3OCC43CCN(CC4CCC5(CC4)CN(c4ncc([C@@H]6c7ccc(O)cc7CC[C@@H]6c6ccccc6)cn4)C5)CC3)C2=O)C(=O)N1` [Compound A154, (S)-3-(1′-((2-(5-((1S,2S)-6-hydroxy-2-phenyl-1,2,3,4-tetrahydronaphthalen-1-yl)pyrimidin-2-yl)-2-azaspiro[3.5]nonan-7-yl)methyl)-6-oxo-6,8-dihydro-2H,7H-spiro[furo[2,3-e]isoindole-3,4′-piperidin]-7-yl)piperidine-2,6-dione], for which the 50% degradation concentration (DC50) on ER in T47D cells (16 hrs treatment) and on ER in MCF-7 cells (16 hrs treatment) was < 1 nM in each case. For the same compound, the Dmax on ER in T47D cells (setting [4]) is > 75%; at ER in MCF-7 cells (setting [1]) it was 50 to 75%. For the same compound, the pIC50 is > 7.30 on CRBN/DDB1 and > 8.00 at ERα_LBD (GST).

With `COc1cc(N2CCC3(CC2)CC(CN2CCC4(CC2)COc2c4ccc4c2CN([C@H]2CCC(=O)NC2=O)C4=O)CO3)ccc1[C@H]1c2ccc(O)cc2CC[C@H]1c1ccccc1` (stereo partly drawn) [Compound A54, (3S)-3-(1′-((8-(4-((1R,2R)-6-hydroxy-2-phenyl-1,2,3,4-tetrahydronaphthalen-1-yl)-3-methoxyphenyl)-1-oxa-8-azaspiro[4.5]decan-3-yl)methyl)-6-oxo-6,8-dihydro-2H,7H-spiro[furo[2,3-e]isoindole-3,4′-piperidin]-7-yl)piperidine-2,6-dione], the DC50 on ER in T47D cells (16 hrs treatment) and on ER in MCF-7 cells (16 hrs treatment) was < 1 nM in each case. For the same compound, the Dmax was > 75% at ER in T47D cells (setting [4]) and 50 to 75% on ER in MCF-7 cells (setting [1]). Moreover, the pIC50 is > 7.30 on CRBN/DDB1 and > 8.00 on ERα_LBD (GST).

Consider `COc1cc(N2CCC3(CC2)CC(CN2CCN4c5ccc6c(c5OC[C@H]4C2)CN([C@H]2CCC(=O)NC2=O)C6=O)C3)ccc1[C@H]1c2ccc(O)cc2CC[C@H]1c1ccccc1` (single isomer, unassigned) [Compound A9], for which the DC50 on ER in T47D cells (16 hrs treatment) and at ER in MCF-7 cells (16 hrs treatment) was 1 to 10 nM in each case. Also, the Dmax at ER in T47D cells (setting [3]) and at ER in MCF-7 cells (setting [2]) was 50 to 75% throughout. In addition, the results for the pIC50 on CRBN/DDB1 and at ERα_LBD (GST) were > 7.30 and 7.00 to 8.00, respectively.

Take `O=C1CC[C@H](N2Cc3c(ccc4c3OCC43CCN(CC4CCC5(CC4)CN(c4ccc([C@@H]6c7ccc(O)cc7CC[C@@H]6c6ccccc6)cc4F)C5)CC3)C2=O)C(=O)N1` [Compound A161, (S)-3-(1′-((2-(2-fluoro-4-((1R, 2S)-6-hydroxy-2-phenyl-1,2,3,4-tetrahydronaphthalen-1-yl)phenyl)-2-azaspiro[3.5]nonan-7-yl)methyl)-6-oxo-6,8-dihydro-2H,7H-spiro[furo[2,3-e]isoindole-3,4′-piperidin]-7-yl)piperidine-2,6-dione]: the Dmax at ER in MCF-7 cells (setting [1]) lay within 50 to 75%. Also, the DC50 on ER in MCF-7 cells (16 hrs treatment) was < 1 nM. The pIC50 was > 7.30 at CRBN/DDB1 and > 8.00 at ERα_LBD (GST).

As for `COc1cc(N2CCC3(CC2)CC(CN2CCN4c5cc6c(cc5OC[C@@H]4C2)C(=O)N([C@H]2CCC(=O)NC2=O)C6)CO3)ccc1[C@H]1c2ccc(O)cc2CC[C@H]1c1ccccc1` (single isomer, unassigned) [Compound A56], the DC50 at ER in T47D cells (16 hrs treatment) and at ER in MCF-7 cells (16 hrs treatment) was < 1 nM in each case. The Dmax on ER in T47D cells (setting [4]) is > 75%; on ER in MCF-7 cells (setting [1]), 50 to 75%. Moreover, the pIC50 on ERα_LBD (GST) is > 8.00.

As for `COc1cc(N2CCC(CN3CCN4c5cc6c(cc5OC[C@@H]4C3)C(=O)N([C@H]3CCC(=O)NC3=O)C6)CC2)c(F)cc1[C@@H]1c2ccc(O)cc2CC[C@@H]1c1ccccc1` [Compound A91, (S)-3-((S)-3-((1-(2-fluoro-4-((1S,2S)-6-hydroxy-2-phenyl-1,2,3,4-tetrahydronaphthalen-1-yl)-5-methoxyphenyl)piperidin-4-yl)methyl)-8-oxo-3,4,4a,5-tetrahydro-1H-pyrazino[1′,2′: 4,5][1,4]oxazino[2,3-f]isoindol-9 (2H,8H,10H)-yl)piperidine-2,6-dione], the DC50 at ER in T47D cells (16 hrs treatment) and on ER in MCF-7 cells (16 hrs treatment) was < 1 nM each time. Besides, the maximal degradation (Dmax) at ER in T47D cells (setting [3]) and on ER in MCF-7 cells (setting [2]) was > 75% in each case. Also, the pIC50 at ERα_LBD (GST) is > 8.00.

As to `O=C1CC[C@H](N2Cc3c(ccc4c3OC[C@H]3CN(CC5CC6(CCN(c7ccc([C@@H]8c9ccc(O)cc9CC[C@@H]8c8ccccc8)cn7)CC6)C5)CCN43)C2=O)C(=O)N1` (single isomer, unassigned) [Compound A112], at ER in MCF-7 cells (setting [2]), the greatest degradation seen (Dmax) was > 75%. Also, the DC50 at ER in MCF-7 cells (16 hrs treatment) was < 1 nM. The pIC50 at CRBN/DDB1 was 6.30 to 7.30; on ERα_LBD (GST) it was > 8.00.

The values are drawn from patent US20260028354A1, “TETRAHYDRONAPHTHALENE DERIVATIVES AS ESTROGEN RECEPTOR DEGRADERS” (REGENT OF THE UNIVERSITY OF MICHIGAN, priority 2022, published 2026).
